Article PMC10812672, “Short Antimicrobial Peptide Derived from the Venom Gland Transcriptome of Pamphobeteus verdolaga Increases Gentamicin Susceptibility of Multidrug-Resistant Klebsiella pneumoniae” (Antibiotics, 2023)
Ends that are not written are not given here.

Columns and labels:
[1] = tested on: multidrug-resistant (MDR) strain of K. pneumoniae, clinical isolate; assay: microbe, parasite or virus in culture; type: cell-based, Klebsiella pneumoniae; conditions: MDR K. pneumoniae clinical isolate
Method: A multidrug-resistant (MDR) strain of K. pneumoniae was identified and isolated from a tertiary-level hospital in Medellin, Colombia, using the VITEK-2 system (bioMérieux, Marcy-l’Étoile, France). The MDR strain was evaluated against several antibiotics at concentrations of 1.56–100 μM. […] In contrast, the strain was susceptible to doxycycline (Supplementary Figure S7g) and chloramphenicol (Supplementary Figure S7h), with MICs of 50 μM and 100 µM, respectively (Table 3). […] All of P. verdolaga’s AMPs were evaluated against the clinical isolate at concentrations of 1.56–200 µM (Supplementary Figure S8). […] A growth inhibition kinetic assay was conducted. […] All of P. verdolaga’s peptides at 100 μM induced morphological changes in the MDR K. pneumoniae, indicating membrane interactions, even though no significant inhibition was observed (Supplementary Figure S9).
The evaluation of the antimicrobial activity of the peptides was conducted using the CLSI’s broth microdilution method for bacterial susceptibility testing. For the screening phase, peptides were evaluated at a single 30 μM concentration, in triplicate and in three independent assays, against the E. coli ATCC® 8739, E. coli ATCC® 25922, S. aureus ATCC® 6538, or S. aureus ATCC® 29213 reference USP and CLSI strains. For the determination of MIC, MBC, or IC50, peptides or antibiotics were evaluated in concentrations between 1.56–200 µM. These evaluations were conducted in triplicate and in three independent assays, against the E. coli ATCC® 25922, S. aureus ATCC® 29213, E. faecalis ATCC® 49532, P. aeruginosa ATCC® 9027, and K. pneumoniae ATCC® BAA-1705, or the clinically isolated MDR strain. In detail, 1 mL of a glycerol stock solution of the ATCC® or clinically isolated bacterial strain was added to 9 mL of Mueller-Hinton Broth and incubated for 18 h, 180 rpm and 37 °C (Incubator 1000, Heidolph Instruments, Schwabach, Germany). After the incubation, 1 mL of the previous solution was transferred to a new recipient containing 9 mL of fresh Mueller-Hinton broth and incubated for 4 h, 180 rpm and 37 °C (Incubator 1000, Heidolph Instruments, Schwabach, Germany). During the second incubation, the peptides or the antibiotics were dissolved in PBS pH 7.20 in concentrations between 19.53–2500 µM (MC5 Micro Balance, Sartorius AG, Göttingen, Germany). An amount of 10 µL of either peptide or antibiotic was dispensed in triplicate in 96-well flat bottom culture plates, along with 10 µL of PBS (Negative activity control), BTM-P1 (Positive activity control), or 10 µL of Mueller-Hinton broth (Blank); then, 110 µL of Mueller-Hinton broth was poured in all wells. Following this, the bacteria were suspended in Mueller-Hinton broth up to a concentration of approximately 1.50 × 10^8 CFU/mL, as measured by optical density at 600 nm between 0.06 to 0.11 (0.5 McFarland standard), in a Multiskan SkyHigh spectrophotometer (ThermoFisher Scientific, Waltham, MA, USA). Amounts of 5 µL of the 1.50 × 10^8 CFU/mL suspension were added to each well (except for the blank) for a final well concentration of approximately 6 × 10^6 CFU/mL. The plate was incubated for 24 h at 37 °C (BE 500, Memmert GmbH, Büchenbach, Germany) and optical density was measured at 600 nm in a Multiskan SkyHigh spectrophotometer (ThermoFisher Scientific, Waltham, MI, USA). Following the measurement of optical density, plates were visually inspected to determine the MIC. Subsequently, 100 µL of the concentration associated to the MIC and 100 µL of the next higher concentration were added to Petri dishes containing Mueller-Hinton Agar. The dishes were then incubated for 24 h at 37 °C (BE 500, Memmert GmbH, Büchenbach, Germany). After incubation, the Petri dishes were visually inspected, and the MBC was determined in the absence of growth. IC50 values were interpolated from regressions with correlation values above 0.70. […]

[2] = tested on: human red blood cells (hRBCs); assay: Hemolytic activity; type: cell-based
Method: The cytotoxicity of PvAMP66 was assessed in vitro against human red blood cells (hRBCs) and human peripheral blood mononuclear cells (hPBMCs) using concentrations of 1.56–200 µM. At the highest concentration, PvAMP66 induced 60% hemolysis in human erythrocytes (Figure 3a), and a decrease in viability of approximately 40% in the hPBMCs (Figure 3b). […] Ratios between CC50 or HC50, and the IC50 values registered for the bacterial strains, indicate that PvAMP66 has higher selectivity for interacting with prokaryotic membranes (Table 4).
Human red blood cells (hRBCs) were obtained from the Blood Bank of the School of Microbiology of the University of Antioquia in Medellín, Colombia. Ten mL of hRBCs were diluted in 10 mL of PSB pH 7.20, mixed by inversion, and centrifuged five times at 4 °C, 1000× g for 10 min (Universal 32 R, Hettich Group, Kirchlengern, Westphalia, Germany). […] Then, the supernatant was transferred to 96-well flat bottom culture plates without transferring of the RBC pellet, and hemoglobin release was measured at 420 nm (Multiskan SkyHigh, ThermoFisher Scientific, Waltham, MA, USA). All peptides were evaluated in three independent assays. The hemolysis percentage was calculated as follows: Hemolysis %=AbsPEPTIDE−Median AbsPBS/Median AbsTRITON−Median AbsPBS×100

WKKIKKFF-NH2 [PvAMP66]
MIC [1]: 3.51 µg/mL
IC50 ([1]; 95% confidence interval in parentheses, read-out: IC50): 15.8 µM
MIC ([1]; peptides 1.56–200 µM, antibiotics 1.56–100 µM, 24 h 37 °C): 25.00 µM
HC50 (Hemolytic Concentration 50) ([2]; 10% v/v hRBC in PBS pH 7.20, 1 h 37 °C, hemoglobin at 420 nm, 1.56–200 µM, logistic regression, 95% CI in parentheses, three independent assays): 132.96 (118.82–151.21) µM
hemolysis ([2]; human erythrocytes, highest concentration (200 µM), 1 h 37 °C): 60%
